In patent US7863269B2, “Imino-imidazo-pyridine derivatives having antithrombotic activity” (sanofi-aventis, priority 2006, dated 2011):

Each molecule was assayed against T1, PAR1 (Homo sapiens, UniProt P25116) (assay: Inhibition of PAR1-mediated platelet aggregation induced by TRAP (96-well format)). Details: washed platelets from blood of healthy volunteers; agonist TRAP (thrombin-receptor activating peptide) solution 70-100 μM; AUC at 650 nm, 37° C., 20 minutes.
T1 construct: endogenous in cells; host or cells: washed platelets from platelet-rich plasma of healthy volunteers
T1 sequence (P25116 22-425): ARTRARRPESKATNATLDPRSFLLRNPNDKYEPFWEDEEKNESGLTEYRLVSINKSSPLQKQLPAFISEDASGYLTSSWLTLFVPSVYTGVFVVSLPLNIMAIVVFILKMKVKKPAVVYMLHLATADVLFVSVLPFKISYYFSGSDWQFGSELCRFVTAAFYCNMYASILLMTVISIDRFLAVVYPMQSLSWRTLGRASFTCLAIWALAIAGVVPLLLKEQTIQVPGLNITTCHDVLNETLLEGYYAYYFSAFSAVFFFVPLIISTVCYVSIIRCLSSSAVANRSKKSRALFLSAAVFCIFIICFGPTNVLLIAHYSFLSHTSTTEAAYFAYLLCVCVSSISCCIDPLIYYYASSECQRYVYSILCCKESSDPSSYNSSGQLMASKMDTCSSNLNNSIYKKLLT
Type: cell-based
Procedure: PAR 1 determination method: Inhibition of PAR1-mediated platelet aggregation The pharmacological testing of the substances was carried out in the platelet aggregation induced by TRAP (thrombin-receptor activating peptide) in a 96-well format. To this end, blood from healthy volunteers was taken in 20 ml syringes into which 2 ml of 3.13% strength sodium citrate solution was initially introduced. After a 20-minute centrifugation at 150×g, the platelet-rich plasma (PRP) was separated off and treated with 1 μl of PGE1 solution (500 μg/ml in ethanol)/ml of PRP. After incubation at RT for 5 minutes, this was centrifuged at 120×g for 15 minutes in order to remove the leucocytes. The leucocyte-free PRP was transferred to 15 ml PP tubes in 5 ml portions and centrifuged off at 360×g for 15 minutes in order to pellet the platelets. Subsequently, the plasma was decanted and the platelet sediment from 5 ml of PRP was resuspended in 1 ml of Tyrode (120 mM NaCl, 2.6 mM KCl, 12 mM NaHCO3, 0.39 mM NaH2PO4×H2O, 10 mM HEPES, 0.35% BSA, 5.5 mM glucose, pH 7.4) and adjusted with Tyrode to a platelet count of 3×10^5/microliter (μl). 13 ml of this cell suspension were then treated with 866 μl of 10 mM CaCl2 solution and 120 μl thereof per well were pipetted to a 96-well plate, in which 15 μl of the substance to be tested were initially introduced. After incubation in the dark at RT for 30 minutes, 15 μl of a TRAP solution (70-100 μM) were added as the agonist and kinetics were recorded with shaking at 37° C. for 20 minutes in a SpectraMax 340 at 650 nm. The areas under the curves of negative control (Tyrode/DMSO) and positive control (15 μl of agonist/DMSO) were calculated and the difference was defined as the 100% value. The substances to be tested were pipetted as a dilution series in a duplicate determination, likewise the AUC of each substance concentration was determined and the % inhibition of the AUC against the control was calculated. By means of the % inhibition, the IC50 was calculated with the aid of a nonlinear regression analysis according to the 4 parameter equation.

**Q.** Which IC50 does the source give for `N=c1n(CC(=O)c2cccc(S(F)(F)(F)(F)F)c2)cc2ccccn12` [Example 2, 2-(3-Iminoimidazo[1,5-a]pyridin-2-yl)-1-(3-pentafluorosulfanylphenyl)ethanone] here?
**A.** 13000 nM

**Q.** With `CCOC(=O)c1cc(OC)n2c(=N)n(CC(=O)c3cc(N4CCOCC4)c(OC)c(C(C)(C)C)c3)cc2c1` [Example 20, Ethyl 2-[2-(3-tert-butyl-4-methoxy-5-morpholin-4-ylphenyl)-2-oxoethyl]-3-imino-5-methoxy-2,3-dihydroimidazo[1,5-a]pyridine-7-carboxylate] as the molecule, how does the IC50 read?
**A.** 70 nM

**Q.** With `CCOc1ccc2n(c1=O)C(=N)N(CC(=O)c1cc(N3CCOCC3)c(OC)c(C(C)(C)C)c1)C2` [Example 18, 2-[2-(3-tert-Butyl-4-methoxy-5-morpholin-4-ylphenyl)-2-oxoethyl]-6-ethoxy-3-imino-2,3-dihydro-1H-imidazo[1,5-a]pyridin-5-one] as the molecule, how does the IC50 read?
**A.** 9500 nM

**Q.** For `CCOc1cc2cn(CC(=O)c3cc4c(c(C(C)(C)C)c3)OCCN4C)c(=N)n2cc1C(=O)NC` [Example 12, 2-[2-(8-tert-Butyl-4-methyl-3,4-dihydro-2H-benzo[1,4]oxazin-6-yl)-2-oxoethyl]-7-ethoxy-3-imino-2,3-dihydroimidazo[1,5-a]pyridine-6-carboxylic acid methylamide], which IC50 is on record?
**A.** 20 nM

**Q.** For `CCOc1cc2cn(CC(=O)c3cc(N4CCOCC4)c(OC)c(C(C)(C)C)c3)c(=N)n2cc1C(=O)NC` [Example 19, 2-[2-(3-tert-Butyl-4-methoxy-5-morpholin-4-ylphenyl)-2-oxoethyl]-7-ethoxy-3-imino-2,3-dihydroimidazo[1,5-a]pyridine-6-carboxylic acid Methylamide], which IC50 is on record?
**A.** 900 nM

**Q.** With `COC(=O)c1ccc2cn(CC(=O)c3cc(N4CCOCC4)c(OC)c(C(C)(C)C)c3)c(=N)n2c1` [Example 8, Methyl 2-[2-(3-tert-butyl-4-methoxy-5-morpholin-4-ylphenyl)-2-oxoethyl]-3-imino-2,3-dihydroimidazo[1,5-a]pyridine-6-carboxylate] as the molecule, how does the IC50 read?
**A.** 510 nM

**Q.** `CC(C)(C)c1cc(C(=O)Cn2c(C3CC3)c3ccccn3c2=N)cc(C(C)(C)C)c1O` [Example 3, 2-(1-Cyclopropyl-3-iminoimidazo[1,5-a]pyridin-2-yl)-1-(3,5-di-tert-butyl-4-hydroxyphenyl)ethanone] was tested. Which IC50 did it give?
**A.** 850 nM

**Q.** How did the IC50 turn out when `CC(C)(C)c1cc(C(=O)Cn2cc3cc(C(F)(F)F)ccn3c2=N)cc(C(C)(C)C)c1O` [Example 6b, 1-(3,5-Di-tert-butyl-4-hydroxyphenyl)-2-(3-imino-7-trifluoromethylimidazo[1,5-a]pyridin-2-yl)ethanone] was run?
**A.** 730 nM
